Results from patent US6372493B1, “Hormone-secreting cells maintained in long-term culture” (Pacific Biomedical Research, Inc. [Cell Mart, Inc.], priority 1991, dated 2002).

Columns and labels:
[1] = system: Human pancreas cell cultures, 55 generations; assay: Time course of insulin secretion in response to glucose (Example 18); type: cell-based
Procedure: Human pancreas cell cultures from Example 16 were maintained in continuous culture through 55 generations, at which time they had been in culture for 12 months.
Two hours prior to the experiment, the cells were centrifuged at 1070 rpm for 5 minutes and then resuspended in glucose-poor medium consisting of 1 part DMSS plus 6 parts PDM. The cells were incubated in glucose-poor medium (glucose-starved) at a concentration of about 1.5×10^6 cells/ml in 10 ml culture flasks for two hours at 37°.
The cells were then centrifuged and resuspended in the experimental medium consisting of one part DMSS and six parts PDM. The glucose concentration in the experimental medium alone was 1.1 mM. To this medium was added glucose in the concentrations shown in Table 12 below, and the cells were incubated for various times.

[2] = system: daughter-islet cells from human pancreas whole islets; assay: Indirect immunofluorescence for insulin after glucose stimulation of daughter-islets (Example 22); type: cell-based; details: 12 mM glucose 3 hours
Procedure: The first assessment was made after three months in culture at the eighth passage generation and the second assessment was made after the sixteenth passage generation and eight months in continuous culture. On the average the daughter-islet cells were passed every 10-14 days. To test the response of the cells to glucose stimulation, the cultures were given a glucose poor basal medium. The basal medium as set forth in Formula VI below was a RPMI-1640 derivative containing 2 mM glucose. The cells remained in glucose poor medium for a period of 4 hours. The cells were first washed five times for 10 minutes each in the Formula VI medium prior to a 3 hour final incubation in the same basal medium. Subsequently the cultures were placed in the same medium, except that its total glucose concentration was 12 mM (instead of 2 mM glucose) for 3 hours and then prepared for indirect immunofluorescence to detect the presence of insulin.
The materials and partial protocol used in this example were as follows:
1. Primary antibody: Guinea pig monoclonal anti-insulin (human) [Peninsula Laboratories, Inc. IFK-7303G] working dilution used was 1:200.
2. Secondary antibody: Rabbit anti-guinea pig IgG (whole molecule) affinity isolated—TRITC conjugate (Sigma T-7153).
3. Negative control: 1 ml of the primary antiserum of the Guinea pig monoclonal anti-insulin (human) was added to 50 μgm of synthetic human insulin (Peninsula Laboratories, Inc.).
4. Nuclear counterstain: Hoechst 33258 (Sigma Chemical Co.), 0.1% was used.
The procedures followed for fixing the cells and the amount of primary and secondary antibodies used are given in detail in the description of procedures for Example 23. The control experiment was exposure only to the glucose poor basal medium.

[3] = system: Human pancreas cells at passage generation 47; assay: Effect of amino acids on glucose stimulated insulin secretion (Example 20); type: cell-based; details: 90 minutes
Procedure: Human pancreas cells at passage generation 47, were prepared for the experiment as described in Example 17 above. The cells were incubated in 6 parts PDM plus 1 part DMSS medium at a concentration of 10^5 cells/ml, at various concentrations of glucose. Alanine (10 mM) or arginine(20 mM) were added, and the cells were incubated for 90 minutes, at which time samples were collected for assay of insulin content.

[4] = system: daughter-islet cells; assay: Daughter islet cell insulin secretion in response to glucose, RIA (Example 25); type: cell-based, human; details: for Secreted Insulin: 17 months of culture, one hour
Procedure: The daughter-islets were obtained as progeny arising through cell division from islet cells in the cultured whole islets obtained as isolates from human pancreases. After 17 months of culture the daughter-islet cells were analyzed for their ability to secrete insulin in response to physiological levels of glucose. Formula VI, as described in Examples 22 and 24 with designated glucose concentrations of 2 mM (Basal level), 7.6 mM (Maintence level), 12 mM and 22 mM was used for the experiment. Care was taken to control the osmolarity of each medium to the range of 260-268 mOsm so that no strong osmotic shock was administered to the daughter-islet cells. The cells were washed 5 times, at 20 minutes each wash, with the basal level medium (2 mM glucose level) before the experiment. Each group of 5 daughter-islet was placed in 1 ml of the test medium and incubated at 37° C., with 5% CO2/5% O2/90% N2, for one hour. The medium was collected for assay and new medium containing 7.6 mM glucose was added. The one hour incubation, using the same conditions was then repeated. Those steps were repeated for the challenges with medium containing 12 mM and 22 mM glucose. Analysis of insulin secretion levels was done by RIA as described in Example 24.

[5] = system: human pancreas whole islets; assay: Insulin secretion of cultured whole islets in response to glucose, RIA (Example 24); type: cell-based; details: +10 mM Glucose (Total 12 mM Glucose)
Procedure: The whole islets were isolated and obtained as described in Example 22. Prior to this experiment they had been in culture for 3¾ months in OCZEM-M and were passage generation 11. Insulin secretion was measured by RIA (Diagnostic Products Corporation).
The cultured whole islets were washed in basal medium [RPMI (5×@ 20 minutes) before the experiment. Then individual whole islets were cultured in the basal level medium containing 2 mM glucose described in Example 22 for 3½ hours (1 islet/1 ml). Each individual islet was then transferred to 1 ml of the basal medium containing an additional 10 mM glucose (to yield a total glucose concentration of 12 mM) and cultured for another 3½ hours. A comparison of the resulting amounts of secreted insulin is shown below in Table 16. Each individual islet was placed in a separate culture dish after the experiment so that future tests on insulin secretion could be measured on identified islets.

Structure (SMILES): O=C[C@H](O)[C@@H](O)[C@H](O)[C@H](O)CO [glucose, D(+)glucose]
- Insulin secreted ([1]; 1 mM glucose added, 1 hr): 275 μIU Insulin secreted/1.5 milli
- Insulin secreted ([1]; 1 mM glucose added, 2 hr): 363 μIU Insulin secreted/1.5 milli
- Insulin secreted ([1]; 1 mM glucose added, 3 hr): 451 μIU Insulin secreted/1.5 milli
- Insulin secreted ([1]; 1 mM glucose added, 5 hr): 564 μIU Insulin secreted/1.5 milli
- Insulin secreted ([1]; 1 mM glucose added, 7 hr): 582 μIU Insulin secreted/1.5 milli
- Insulin secreted ([1]; 1 mM glucose added, 24 hr): 812 μIU Insulin secreted/1.5 milli
- Insulin secreted ([1]; 5.6 mM glucose added, 1 hr): 3413 μIU Insulin secreted/1.5 milli
- Insulin secreted ([1]; 5.6 mM glucose added, 2 hr): 982 μIU Insulin secreted/1.5 milli
- Insulin secreted ([1]; 5.6 mM glucose added, 3 hr): 999 μIU Insulin secreted/1.5 milli
- Insulin secreted ([1]; 5.6 mM glucose added, 5 hr): 2383 μIU Insulin secreted/1.5 milli
- Insulin secreted ([1]; 5.6 mM glucose added, 7 hr): 2718 μIU Insulin secreted/1.5 milli
- Insulin secreted ([1]; 5.6 mM glucose added, 24 hr): 2760 μIU Insulin secreted/1.5 milli
- Insulin secreted ([1]; 11.0 mM glucose added, 1 hr): 3376 μIU Insulin secreted/1.5 milli
- Insulin secreted ([1]; 11.0 mM glucose added, 2 hr): 1768 μIU Insulin secreted/1.5 milli
- Insulin secreted ([1]; 11.0 mM glucose added, 3 hr): 2220 μIU Insulin secreted/1.5 milli
- Insulin secreted ([1]; 11.0 mM glucose added, 5 hr): 1184 μIU Insulin secreted/1.5 milli
- Insulin secreted ([1]; 11.0 mM glucose added, 7 hr): 3202 μIU Insulin secreted/1.5 milli
- Insulin secreted ([1]; 11.0 mM glucose added, 24 hr): 1276 μIU Insulin secreted/1.5 milli
- Insulin secreted ([1]; 16.5 mM glucose added, 1 hr): 3716 μIU Insulin secreted/1.5 milli
- Insulin secreted ([1]; 16.5 mM glucose added, 2 hr): 2415 μIU Insulin secreted/1.5 milli
- Insulin secreted ([1]; 16.5 mM glucose added, 3 hr): 2450 μIU Insulin secreted/1.5 milli
- Insulin secreted ([1]; 16.5 mM glucose added, 5 hr): 2589 μIU Insulin secreted/1.5 milli
- Insulin secreted ([1]; 16.5 mM glucose added, 7 hr): 4039 μIU Insulin secreted/1.5 milli
- Insulin secreted ([1]; 16.5 mM glucose added, 24 hr): 2099 μIU Insulin secreted/1.5 milli
- Insulin secreted ([1]; 22 mM glucose added, 1 hr): 2538 μIU Insulin secreted/1.5 milli
- Insulin secreted ([1]; 22 mM glucose added, 2 hr): 1845 μIU Insulin secreted/1.5 milli
- Insulin secreted ([1]; 22 mM glucose added, 3 hr): 2066 μIU Insulin secreted/1.5 milli
- Insulin secreted ([1]; 22 mM glucose added, 5 hr): 1722 μIU Insulin secreted/1.5 milli
- Insulin secreted ([1]; 22 mM glucose added, 7 hr): 1320 μIU Insulin secreted/1.5 milli
- Insulin secreted ([1]; 22 mM glucose added, 24 hr): 989 μIU Insulin secreted/1.5 milli
- Insulin secreted ([1]; 33 mM glucose added, 1 hr): 972 μIU Insulin secreted/1.5 milli
- Insulin secreted ([1]; 33 mM glucose added, 2 hr): 345 μIU Insulin secreted/1.5 milli
- Insulin secreted ([1]; 33 mM glucose added, 3 hr): 446 μIU Insulin secreted/1.5 milli
- Insulin secreted ([1]; 33 mM glucose added, 5 hr): 657 μIU Insulin secreted/1.5 milli
- Insulin secreted ([1]; 33 mM glucose added, 7 hr): 1109 μIU Insulin secreted/1.5 milli
- Insulin secreted ([1]; 33 mM glucose added, 24 hr): 1073 μIU Insulin secreted/1.5 milli
- glucose concentration of maximal response ([1]; glucose-starved cells, 1 to 24 hr): 16.5 mM
- % of insulin positive cells ([2]; 3 mo. culture (8th passage generation)): 88%
- # cells positive for insulin (anti-insulin-RITC) ([2]; 3 mo. culture (8th passage generation), 388 cells screened): 343
- % of insulin positive cells ([2]; 8 mo. culture (16th passage generation)): 87%
- # cells positive for insulin (anti-insulin-RITC) ([2]; 8 mo. culture (16th passage generation), 195 cells screened): 170
- insulin secretion, control (glucose alone) ([3]; total 1 mM glucose, 10^5 cells/ml): 91
- insulin secretion, control (glucose alone) ([3]; total 2 mM glucose): 108
- insulin secretion, control (glucose alone) ([3]; total 6 mM glucose): 112
- insulin secretion, control (glucose alone) ([3]; total 11 mM glucose): 116
- insulin secretion, control (glucose alone) ([3]; total 16 mM glucose): 128
- insulin secretion, control (glucose alone) ([3]; total 22 mM glucose): 115
- Secreted Insulin ([4]; 12 mM glucose): 38.6 μIU/ml/hour/10^3 cells
- Secreted Insulin ([4]; 22 mM glucose): 144.5 μIU/ml/hour/10^3 cells
- maximal response relative to the basal level ([4]; basal level 0.3 at 2 mM glucose): 482 times
- Secreted Insulin ([5]; 2 Medium islets @): 162.2 uIU/ml/hr
- Secreted Insulin ([5]; 2 Very small islets @ (<0.5 μm)): 84.5 uIU/ml/hr
- Secreted Insulin ([5]; Extra large islet (>250 μm), 3½ hours): 86.7 uIU/ml/hr
- Secreted Insulin ([5]; Large islet (˜150 μm)): 149.4 uIU/ml/hr
